Results published in patent US4496551A (priority 1983, dated 1985).

Experiments:
Assay type in all cases: in vivo
[1] = system: Puccinia recondita var. tritici; assay: wheat leaf rust control on wheat seedlings; conditions: 100 ppm, sprayed day before inoculation
Description: (§1) Compounds of this invention were dissolved in acetone in an amount equal to 6% of the final volume and then suspended at a concentration of 100 ppm in purified water containing 250 ppm of the surfactant TREM 014 (polyhydric alcohol esters). This suspension was sprayed to the point of run-off on wheat seedlings. The following day, the plants were inoculated with a spore suspension of Puccinia recondita var. tritici, causal agent of wheat leaf rust, and incubated in a saturated humidity chamber at 20° for 24 hours and then in a growth room for an additional 7 days, when disease ratings were made. Treated plants from successful treatments had few or no rust pustules while the untreated plants had numerous rust pustules on each leaf.

[2] = system: Erysiphe cichoracearum; assay: cucumber powdery mildew control on cucumber seedlings; conditions: Golovinomyces cichoracearum, 168 h, 7 days
Description: Compounds of the previous examples were again dissolved in acetone in an amount equal to 6% of the final volume and then suspended at a concentration of 100 ppm in purified water containing 250 ppm of the surfactant TREM 014 (polyhydric alcohol esters). This suspension was sprayed to the point of run-off on cucumber seedlings. The following day, the plants were inoculated with a spore suspension of the fungus Erysiphe cichoracearum, causal agent of cucumber powdery mildew, and incubated in a growth room for 7 days. Disease ratings were then made. Treated plants from successful treatments had little or no powdery mildew in contrast to untreated plants which were covered with powdery mildew.

[3] = system: Venturia inaequalis; assay: apple scab control on apple seedlings; conditions: Venturia inaequalis; 100 ppm
Description: as §1, with “apple” for “wheat”, “the fungus Venturia inaequalis,” for “Puccinia recondita var. tritici,”, “apple scab,” for “wheat leaf rust,”, “10-12 days.” for “7 days, when disease ratings were made.”, “apple scab lesions when compared to” for “rust pustules while the”, “which were covered with scab lesions.” for “had numerous rust pustules on each leaf.”

[4] = system: Helminthosporium maydis; assay: southern corn leaf blight control on corn seedlings; conditions: Bipolaris maydis, 168 h
Description: Compounds of the previous example were again dissolved in acetone in an amount equal to 6% of the final volume and then suspended at a concentration of 100 ppm in purified water containing 250 ppm of the surfactant TREM 014 (polyhydric alcohol esters). This suspension was sprayed to the point of run-off on corn seedlings. The following day, the plants were inoculated with a spore suspension of Helminthosporium maydis, causal agent of southern corn leaf blight, and incubated in a saturated humidity chamber at 20° for 24 hours and then in a growth room for an additional 7 days, when disease ratings were made. Treated plants from successful treatments had few lesions while the untreated plants had numerous lesions on each leaf.

[5] = system: Cercospora arachidicola; assay: peanut early leafspot control on peanut seedlings; conditions: Mycosphaerella arachidis, 336 h
Description: Compounds of the previous examples were again dissolved in acetone in an amount equal to 6% of the final volume and then suspended at a concentration of 100 ppm in purified water containing 250 ppm of the surfactant TREM 014 (polyhydric alcohol esters). This suspension was sprayed to the point of run-off on peanut seedlings. The following day, the plants were inoculated with a spore suspension of Cercospora arachidicola, causal agent of peanut early leafspot, and incubated in a saturated humidity chamber at 27° for 24 hours and then in a growth room for an additional 14 days, when disease ratings were made. Treated plants from successful treatments had few or no leafspots while the untreated plants had numerous leafspots on each leaf.

[6] = system: Rhizoctonia solani; assay: rice sheath blight control on rice seedlings; conditions: Rhizoctonia solani, 168 h, 7 days
Description: Several compounds of the previous examples were again dissolved in acetone in an amount equal to 6% of the final volume and then suspended at a concentration of 100 ppm in purified water containing 250 ppm of the surfactant TREM 014 (polyhydric alcohol esters). This suspension was sprayed to the point of run-off on rice seedlings. The following day, the plants were inoculated with a mixture of bran and the mycelium of Rhizoctonia solani, causal agent of sheath blight of rice, and incubated in a growth room for 7 days. Disease ratings were then made. Treated plants from successful treatments had little sheath blight in contrast to untreated plants which were covered with sheath blight.

[7] = system: Pyricularia oryzae; assay: whole plant or invertebrate; conditions: 168 h, read-out: % Control of Rice Blast
[8] = system: Phytophthora infestans; assay: whole plant or invertebrate; conditions: Phytophthora infestans, in Solanum lycopersicum, 168 h, read-out: % Control of Tomato Late Blight

Compound	pest or weed control at 100 ppm [1] [%]	pest or weed control at 100 ppm [2] [%]	pest or weed control at 100 ppm [3] [%]	pest or weed control at 100 ppm [4] [%]	pest or weed control at 100 ppm [5] [%]	pest or weed control at 100 ppm [6] [%]	pest or weed control at 100 ppm [7] [%]	pest or weed control at 100 ppm [8] [%]
C[Si](C)(Cn1ccnc1)c1ccc(-c2ccc(Br)cc2)cc1 [(4'-Bromo-1,1'-biphenyl-4-yl)dimethyl(1H-imidazol-1-ylmethyl)silane]	100	100	50	0	90	90	90	0
C[Si](C)(Cn1ccnc1)c1ccc(Br)cc1 [(4-Bromophenyl)(1H-imidazol-1-ylmethyl)dimethylsilane]	0	100	0	0	0	0	0	30
C[Si](Cn1ccnc1)(c1ccccc1)c1ccc(Br)cc1 (stereo not drawn) [(4-Bromophenyl)(1H-imidazol-1-ylmethyl)methyl(phenyl)silane]	90	100	30	0	90	0	0	0
C[Si](C)(Cn1ccnc1)c1ccc(S(C)(=O)=O)cc1 [Dimethyl(1H-imidazol-1-ylmethyl)(4-methylsulfonylphenyl)silane]	0	0	80	0	0	0	100	0
CSc1ccc([Si](C)(C)Cn2ccnc2)cc1 [Dimethyl(1H-imidazol-1-ylmethyl)(4-methylthiophenyl)silane]	0	100	0	0	0	0	0	0
CCCCCCCCCCCCCCCCCC[Si](C)(C)Cn1ccnc1 [Dimethyl(1H-imidazol-1-ylmethyl)octadecylsilane]	0	0	80	0	0	100	80	0
CC(C)(C)c1ccc([Si](C)(C)Cn2ccnc2)cc1 [[4-(1,1-Dimethylethyl)phenyl](1H-imidazol-1-ylmethyl)dimethylsilane]	0	80	50	70	0	0	80	0
C[Si](Cn1ccnc1)(c1ccccc1Cl)c1ccccc1Cl [[bis(2-Chlorophenyl)](1H-imidazol-1-ylmethyl)methylsilane]	0	100	60	90	100	40	90	60
C[Si](Cn1ccnc1)(c1ccc(Br)cc1)c1ccc(Br)cc1 [[bis(4-Bromophenyl)](1H-imidazol-1-ylmethyl)methylsilane]	0	100	50	0	50	0	80	0
O[Si](Cn1ccnc1)(c1ccc(Cl)cc1)c1ccc(Cl)cc1 [[bis(4-chlorophenyl)]hydroxy(1H-imidazol-1-ylmethyl)silane]	80	100	0	0	50	0	0	0
C[Si](Cn1ccnc1)(c1ccc(-c2ccccc2)cc1)c1ccc(-c2ccccc2)cc1 [bis(1,1'-Biphenyl-4-yl)(1H-imidazol-1-ylmethyl)methylsilane]	0	0	50	0	60	0	0	0
C[Si](Cn1ccnc1)(c1ccc(Cl)cc1Cl)c1ccc(Cl)cc1Cl [bis(2,4-Dichlorophenyl)(1H-imidazol-1-ylmethyl)methylsilane]	100	100	40	80	90	80	0	0
O[Si](Cn1ccnc1)(c1ccc(F)cc1)c1ccc(F)cc1 [bis(4-Fluorophenyl)hydroxy(1H-imidazol-1-ylmethyl)silane]	100	100	0	0	50	90	60	0
Clc1ccc([Si](Cn2ccnc2)(c2ccc(Cl)cc2)c2ccc(Cl)cc2)cc1 [tris(4-Chlorophenyl)(1H-imidazol-1-ylmethyl)silane]	0	100	0	0	0	0	0	0
Fc1ccc([Si](Cn2ccnc2)(c2ccc(F)cc2)c2ccc(F)cc2)cc1 [tris(4-Fluorophenyl)(1H-imidazol-1-ylmethyl)silane]	80	100	0	0	0	0	0	0
